Reference: patent US7371921B2, “Nonhuman animal model non-responsive to mycoplasma-origin lipoprotein/lipopeptide” (Japan Science and Technology Agency, priority 2000, dated 2008)

Experiments:
peritoneal macrophages [1] = test: TNF-á production by peritoneal macrophages stimulated with lipopeptide; type: cell-based, mouse; settings: 24 hours, various concentrations, FIG. 4
Method: (§1) Each of wild-type (wild-type), TLR6 knockout (TLR6−/−) and TLR2 knockout (TLR2−/−) mice were intraperitoneally injected with 2 ml of 4% thioglycollate medium (DIFCO). Three days later, peritoneal exudate cells were isolated from the peritoneal cavity of each mouse. These cells were cultured in RPMI1640 medium (GIBCO) supplemented with 10% fetal bovine serum (GIBCO) for 2 hours at 37° C. and washed with ice-cold Hank's buffered salt solution (HBSS; GIBCO) to remove nonadherent cells. Adherent cells were used as peritoneal macrophages for the following experiments.
(§2) Responsiveness of peritoneal macrophages derived from a wild-type mouse or a TLR6 knockout mouse to lipopeptide was examined with synthetic Gram negative bacteria-derived lipopeptide JBT3002 and synthetic mycoplasma-derived lipopeptide MALP-2. Peritoneal macrophages (5×10^4 cells) of wild-type and TLR6 knockout mice prepared in Example 2 were cultured for 24 hours together with various concentrations of JBT3002 (provided by Dr. Z. Dong) or MALP-2 (provided by Dr. P. F. Muhlradt) shown in FIG. 4, and stimulated. When culture was completed, the production amounts of TNF-á (TNFá) and NO2^− (NO) in culture supernatants were measured (FIG. 4). NO2^− was measured by the Greiss method using NO2/NO3 Assay Kit (Dojindo Laboratories).

peritoneal macrophages [2] = test: NO2^− production by peritoneal macrophages stimulated with lipopeptide (Greiss method); type: cell-based, mouse; settings: 24 hours, various concentrations, FIG. 4
Method: as §1, §2

NF-êB = NF-êB activation in peritoneal macrophages (nucleoprotein binding to NF-êB DNA probe, electrophoresis, autoradiography); type: cell-based, mouse; settings: 0.1 ng/ml JBT3002 or 0.3 ng/ml MALP-2 for 20 or 40 minutes, FIG. 5
Method: as §1
It is known that TLR signals activate IRAK, which is serine/threonine kinase, via an adapter molecule MyD88 and then activate MAP kinase and NF-êB (Immunity 11, 115-122, 1999). In addition, it is also known that a mycoplasma-derived lipoprotein/lipopeptide causes vital reaction via TLR2 and MyD88 signaling pathways (J. Immunol. 164, 554-557, 2000). Consequently, with wild-type, TLR6 knockout and TLR2 knockout mice, whether a bacteria-derived lipoprotein/lipopeptide activates intracellular signaling molecules was examined. Peritoneal macrophages (1×10^6 cells) of wild-type (wild-type) and TLR6 knockout (TLR6−/−) and TLR2 knockout (TLR2−/−) mice prepared in Example 2 were stimulated with 0.1 ng/ml JBT3002 or 0.3 ng/ml MALP-2 for 20 or 40 minutes, and nucleoproteins were extracted from macrophages of each mouse and incubated with a specific probe containing DNA binding site of NF-êB, then subjected to electrophoresis and visualized by autoradiography (FIG. 5).

peritoneal macrophages [3] = test: TNFá production by peritoneal macrophages in response to lipoprotein, LPS or PGN (ELISA); type: cell-based; settings: macrophages from TLR6 knockout mouse (TLR6−/−) compared with wild-type; 24 hours; 10 μM lipoprotein, 100 ng/ml LPS, various concentrations of PGN; FIG. 3
Method: as §1
Therefore, responsiveness of TLR6 knockout mouse to these LPS, lipoprotein derived from Spirochaeta, and peptidoglycan derived from Staphylococcus aureus was examined. Peritoneal macrophages (5×10^4 cells) of wild-type and TLR6 knockout mice prepared in Example 2 were cultured for 24 hours together with 10 μM B. burgdorferi-derived lipoprotein OspA or OspC, 10 μM T. pallidum-derived lipoprotein 17-kDa (17) or 47-kDa (47), 100 ng/ml LPS, or various concentrations of peptidoglycan (PGN) shown in FIG. 3. When culture was completed, concentrations of TNFá in culture supernatants were measured by ELISA respectively.

[4] = macrophages from TLR6 knockout mouse (TLR6−/−)
[5] = macrophages from wild-type mouse

MALP-2
production amount of TNF-á (peritoneal macrophages [1]; [4]): produced no TNF-á and NO2^−
production amount of TNF-á (peritoneal macrophages [1]; [5]): increased the production amounts of TNF-á (TNFá) and NO2^− (NO) in a manner dependent on doses
production amount of NO2^− (peritoneal macrophages [2]; [4]): produced no TNF-á and NO2^−
production amount of NO2^− (peritoneal macrophages [2]; [5]): increased the production amounts of TNF-á (TNFá) and NO2^− (NO) in a manner dependent on doses
activation of NF-êB (NF-êB; macrophages from TLR2 knockout mouse (TLR2−/−)): no activation was observed
activation of NF-êB (NF-êB; [4]): no activation in response to MALP-2 was observed
activation of NF-êB (NF-êB; [5]): activation of NF-êB in response to the stimulation with MALP-2 or JBT3002 was observed

lipopolysaccharide [LPS]
TNFá in culture supernatant (peritoneal macrophages [3]): approximately the same amount of TNFá as macrophages derived from a wild-type mouse

peptidoglycan [PGN]
TNFá in culture supernatant (peritoneal macrophages [3]): approximately the same amount of TNFá as macrophages derived from a wild-type mouse

OspA: B. burgdorferi-derived lipoprotein
TNFá in culture supernatant (peritoneal macrophages [3]): approximately the same amount of TNFá as macrophages derived from a wild-type mouse

B1: OspC: B. burgdorferi-derived lipoprotein (protein, UniProt Q07337 19-210, looked up)
Outer surface protein C: CNNSGKDGNTSANSADESVKGPNLTEISKKITDSNAVLLAVKEVEALLSSIDEIAAKAIGKKIHQNNGLDTENNHNGSLLAGAYAISTLIKQKLDGLKNEGLKEKIDAAKKCSETFTNKLKEKHTDLGKEGVTDADAKEAILKTNGTKTKGAEELGKLFESVEVLSKAAKEMLANSVKELTSPVVAESPKKP
TNFá in culture supernatant (peritoneal macrophages [3]): approximately the same amount of TNFá as macrophages derived from a wild-type mouse
